# Measured values taken from ChEMBL document CHEMBL2177020, “Structure-activity relationship studies of orally active antimalarial 3,5-substituted 2-aminopyridines” (J Med Chem, 2012).
# Legend:
# [1] = physchem; conditions: octanol/water, pH 7.4
# [2] = Kinetic solubility of the compound in 0.01M HCl at pH 2 by nephelometry analysis; type: physicochemical; conditions: read-out: Kinetic_solubility
# [3] = Kinetic solubility of the compound in phosphate buffer at pH 6.5 by nephelometry analysis; type: physicochemical; conditions: read-out: Kinetic_solubility
# [4] = Plasma concentration in Swiss mouse at 30 mg/kg, po after 8 hrs; type: ADME, organism-based; set-up: dose 30 mg/kg, route oral
# [5] = Plasma concentration in Swiss mouse at 30 mg/kg, po after 0.5 hrs; type: ADME, organism-based; set-up: dose 30 mg/kg, route oral
# [6] = tested on: Plasma; assay: Average plasma concentration in Swiss mouse at 30 mg/kg, po after up to 24 hrs; type: ADME, organism-based; set-up: dose 30 mg/kg, route oral; conditions: in vivo
# [7] = Plasma concentration in Swiss mouse at 30 mg/kg, po after 24 hrs; type: ADME, organism-based; set-up: dose 30 mg/kg, route oral
# [8] = tested on: Plasma; assay: Average plasma concentration in Swiss mouse at 30 mg/kg, po after up to 8 hrs; type: ADME, organism-based; set-up: dose 30 mg/kg, route oral; conditions: in vivo
SMILES,logD [1],solubility kinetic [2],solubility kinetic [3],concentration at 8 h [4],concentration at 0.5 h [5],Cave [6],concentration at 24 h [7],Cave [8]
CN1CCN(C(=O)c2ccc(-c3cnc(N)c(-c4ccc(C(F)(F)F)cc4)c3)cc2)CC1,3.9,> 100 µg/mL,25 µg/mL,,,,,
Nc1ncc(-c2ccc(C(=O)N3CCNCC3)cc2)cc1-c1ccc(C(F)(F)F)nc1,2.4,> 100 µg/mL,50 µg/mL,,,,,
Nc1ncc(-c2ccc(C(=O)N3CCNCC3)cc2)cc1-c1ccc(C(F)(F)F)cc1,3.3,> 100 µg/mL,25 µg/mL,,,,,
COc1ccc(-c2cc(-c3ccc(-c4nnc(C)o4)cc3)cnc2N)cn1,2.6,> 100 µg/mL,12.5 µg/mL,,,,,
COc1ccc(-c2cc(-c3ccc4nccn4c3)cnc2N)cn1,2.4,> 100 µg/mL,12.5 µg/mL,,,,,
COc1ccc(-c2cc(-c3ccc4cnn(C)c4c3)cnc2N)cn1,3,> 100 µg/mL,6.3 µg/mL,,,,,
COc1ccc(-c2cc(-c3ccc4ncccc4c3)cnc2N)cn1,2.9,> 100 µg/mL,6.3 µg/mL,,,,,
COc1ccc(-c2cc(-c3ccc(C(=O)O)cc3)cnc2N)cn1,0.8,12.5 µg/mL,6.3 µg/mL,,,,,
COc1ccc(-c2cc(-c3ccc(C(N)=O)cc3)cnc2N)cn1,1.7,> 100 µg/mL,12.5 µg/mL,1300 nM,10600 nM,2400 nM,10 nM,8200 nM
COc1ccc(-c2cc(-c3cccc(C(N)=O)c3)cnc2N)cn1,1.7,> 100 µg/mL,12.5 µg/mL,,,,,
COc1ccc(-c2cc(-c3ccc(C(=O)N(C)C)cc3)cnc2N)cn1,2.1,> 100 µg/mL,> 100 µg/mL,6400 nM,30800 nM,,< 1 nM,25100 nM
CNC(=O)c1ccc(-c2cnc(N)c(-c3ccc(OC)nc3)c2)cc1,1.8,50 µg/mL,50 µg/mL,,,,,
COc1ccc(-c2cc(-c3ccc(C(=O)NCCCO)cc3)cnc2N)cn1,,> 100 µg/mL,12.5 µg/mL,,,,,
COc1ccc(-c2cc(-c3ccc(C(=O)NCCN4CCOCC4)cc3)cnc2N)cn1,1.9,> 100 µg/mL,> 100 µg/mL,,,,,
COc1ccc(-c2cc(-c3ccc(C(=O)NCCN4CCCC4)cc3)cnc2N)cn1,2.5,> 100 µg/mL,> 100 µg/mL,,,,,
COc1ccc(-c2cc(-c3ccc(C(=O)N4CCN(C)CC4)cc3)cnc2N)cn1,2,> 100 µg/mL,> 100 µg/mL,,,,,
COc1ccc(-c2cc(-c3ccc(C(=O)N4CCOCC4)cc3)cnc2N)cn1,2,25 µg/mL,25 µg/mL,800 nM,10300 nM,,,7800 nM
Nc1ncc(-c2ccc(C(=O)N3CCOCC3)cc2)cc1-c1ccc(C(F)(F)F)nc1,2.4,> 100 µg/mL,25 µg/mL,840 nM,4110 nM,,,3400 nM

SMILES,logD [1],solubility kinetic [2],solubility kinetic [3],concentration at 8 h [4],concentration at 0.5 h [5],Cave [6],concentration at 24 h [7],Cave [8]
Nc1ncc(-c2ccc(C(=O)N3CCOCC3)cc2)cc1-c1ccc(C(F)(F)F)cc1,3.1,> 100 µg/mL,6.3 µg/mL,50 nM,300 nM,100 nM,1 nM,200 nM
CN1CCN(C(=O)c2ccc(-c3cnc(N)c(-c4ccc(C(F)(F)F)nc4)c3)cc2)CC1,2.9,> 100 µg/mL,> 100 µg/mL,,,,,
COc1ccc(-c2cc(-c3cccc(S(C)(=O)=O)c3)cnc2N)cn1,2.3,> 100 µg/mL,25 µg/mL,,,,,
COc1ccc(-c2cc(-c3ccc(S(=O)(=O)N(C)C)cc3)cnc2N)cn1,2.8,> 100 µg/mL,6.3 µg/mL,,,,,
CNS(=O)(=O)c1ccc(-c2cnc(N)c(-c3ccc(OC)nc3)c2)cc1,2.2,> 100 µg/mL,12.5 µg/mL,,,,,
COc1ccc(-c2cc(-c3ccc(S(N)(=O)=O)cc3)cnc2N)cn1,1.8,> 100 µg/mL,12.5 µg/mL,,,,,
COc1ccc(-c2cc(-c3ccc(S(=O)(=O)NC4CC4)cc3)cnc2N)cn1,2.7,> 100 µg/mL,6.3 µg/mL,,,,,
COc1ccc(-c2cc(-c3ccc(S(=O)(=O)N4CCOCC4)cc3)cnc2N)cn1,2.7,> 100 µg/mL,6.3 µg/mL,,,,,
COc1ccc(-c2cc(-c3ccc(S(=O)(=O)N4CCN(C)CC4)cc3)cnc2N)cn1,2.7,> 100 µg/mL,25 µg/mL,,,,,
COc1ccc(-c2cc(-c3ccc(NS(C)(=O)=O)cc3)cnc2N)cn1,2.2,> 100 µg/mL,25 µg/mL,,,,,
COc1ccc(-c2cc(-c3ccc(S(C)(=O)=O)c(F)c3)cnc2N)cn1,2.5,> 100 µg/mL,6.3 µg/mL,,,,,
COc1ccc(-c2cc(-c3ccc(S(C)(=O)=O)cc3C(F)(F)F)cnc2N)cn1,2.7,> 100 µg/mL,12.5 µg/mL,,,,,
COc1ccc(-c2cc(-c3ccc(OC(F)(F)F)cc3)cnc2N)cn1,4.3,> 100 µg/mL,1.6 µg/mL,,,,,
COc1ccc(-c2cc(-c3ccc(C(F)(F)F)cc3)cnc2N)cn1,4.2,> 100 µg/mL,1.6 µg/mL,,,,,
COc1ccc(-c2cnc(N)c(-c3ccc(OC)nc3)c2)cn1,2.8,> 100 µg/mL,25 µg/mL,,,,,
COc1ccc(-c2cc(-c3ccc(-n4cncn4)cc3)cnc2N)cn1,2.4,> 100 µg/mL,6.3 µg/mL,,,,,
COc1ccc(-c2cc(-c3ccc(-n4cccn4)cc3)cnc2N)cn1,3.1,> 100 µg/mL,3.1 µg/mL,,,,,
